Reference: PMC10489911 (2023)

Legend:
[1] = test system: AG3(T2AG3)3 (G4-Tel, telomeric G4) (DNA, G4) AGGGTTAGGGTTAGGGTTAGGG; test: G4-FID fluorescence displacement; conditions: K+ 100 mM KCl, plus potassium phosphate, PBS pH 6.8, 25 °C, thiazole orange displaced
[2] = test system: AG3(T2AG3)3 (G4-Tel, telomeric G4) (DNA, G4) AGGGTTAGGGTTAGGGTTAGGG; test: UV-Vis titration; conditions: K+ 100 mM KCl, plus potassium phosphate, 20 mM phosphate, pH 6.8, ligand 2 μM
[3] = test system: AG3(T2AG3)3 (G4-Tel, telomeric G4) (DNA, G4) AGGGTTAGGGTTAGGGTTAGGG; test: CD melting at 295 nm; conditions: K+ 100 mM KCl, plus potassium phosphate; 20 mM phosphate, pH 6.8; 2 equivalents of ligand; Tm 56.1 alone

Row | SMILES | DC50 ([1]; text prints 1.04) [nM] | Kb ([2]; ligand aggregates in buffer) | ΔTm [3] [°C] | DC50 ([1]; table prints 0.90 ± 0.04, its ratio 2.01 fits 0.99) [nM] | Kb [2] | DC50 [1] [nM]
1 | C[n+]1ccc(-c2cc3c(cc2-c2cc[n+](C)cc2)-c2nc-3c(-c3ccccc3)c3ccc([n-]3)c(-c3ccccc3)c3nc(c(-c4ccccc4)c4ccc([n-]4)c2-c2ccccc2)-c2cc(-c4cc[n+](C)cc4)c(-c4cc[n+](C)cc4)cc2-3)cc1.[Ni+2] | 1020 ± 60 | 3.71 ± 1.28 × 10^6 M^−1 | 8.5 |  |  | 
2 | C[n+]1ccc(-c2cc3c(cc2-c2cc[n+](C)cc2)-c2nc-3c(-c3ccccc3)c3ccc([nH]3)c(-c3ccccc3)c3nc(c(-c4ccccc4)c4ccc([nH]4)c2-c2ccccc2)-c2cc(-c4cc[n+](C)cc4)c(-c4cc[n+](C)cc4)cc2-3)cc1 |  |  | 2.3 | 990 | 6.01 ± 1.11 × 10^6 M^−1 | 
3 | C[n+]1ccc(-c2cc3c(cc2-c2cc[n+](C)cc2)-c2nc-3c(-c3ccccc3)c3ccc([n-]3)c(-c3ccccc3)c3nc(c(-c4ccccc4)c4ccc([n-]4)c2-c2ccccc2)-c2cc(-c4cc[n+](C)cc4)c(-c4cc[n+](C)cc4)cc2-3)cc1.[Zn+2] |  | 7.05 ± 1.31 × 10^6 M^−1 | 7.4 |  |  | 420 ± 80
